Data: patent publication US12054498B2, “Heteroaromatic macrocyclic ether chemotherapeutic agents” (Nuvalent, Inc., priority 2020, dated 2024)

Key:
[1] = tested on: TPM3-NTRK1-wt IC50 / primary target IC50 (e.g. CD74-ROS1-wt); test: TRKA selectivity in Ba/F3 cells (TRKA potency divided by primary target potency); format: cell-based; settings: for TPM3-NTRK1-wt/CD74-ROS1-G2032R selectivity ratio: TRKA potency / CD74-ROS1-G2032R potency; for TPM3-NTRK1-wt/CD74-ROS1-wt selectivity ratio: TRKA potency / CD74-ROS1-wt potency; for TPM3-NTRK1-wt/EML4-ALK-L1196M-G1202R selectivity ratio: TRKA potency / EML4-ALK-L1196M-G1202R potency; for TPM3-NTRK1-wt/EML4-ALK-wt selectivity ratio: TRKA potency / EML4-ALK-wt potency
Procedure: TRKA selectivity was calculated by dividing a compound's TRKA potency by its primary target potency (e.g. TPM3-NTRK1-wt IC50/CD74-ROS1-wt IC50). Compound selectivity can be interpreted by binning ratio values: bin A for very high selectivity, ratio >30-fold; bin B for high selectivity, ratio >10-fold; bin C for moderate selectivity, ratio ≥1; and bin D for low selectivity, ratio <1. […] (nd=not determined).

TRKA-wt = molecular target: T1, TRKA-wt (Homo sapiens, UniProt P04629); test: Biochemical kinase assay, TRKA-wt kinase domain; settings: apparent inhibitory constant, Morrison equation; ATP 2 mM in substrate solution; read-out: TRKA-wt Ki^app
T1 construct: or TRKA-wt (1 nM, BPS Bio, 40280) kinase domains in buffer; purchased BPS Bio 40280
T1 sequence (P04629 510-781 limits assumed): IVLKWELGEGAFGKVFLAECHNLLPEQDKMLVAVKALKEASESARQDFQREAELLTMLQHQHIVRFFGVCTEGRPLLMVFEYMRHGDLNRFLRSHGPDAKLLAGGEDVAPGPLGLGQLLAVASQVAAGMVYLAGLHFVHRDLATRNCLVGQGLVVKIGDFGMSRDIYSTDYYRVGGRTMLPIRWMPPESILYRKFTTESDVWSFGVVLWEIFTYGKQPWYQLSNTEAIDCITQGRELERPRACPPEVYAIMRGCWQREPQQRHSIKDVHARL
In short: (§1)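 Kinase domains (in kinase solution: ROS1-G2032R 0.5 nM, ROS1-wt 0.6 nM, TRKA 1 nM, ALK L1196M/G1202R 3 nM) were mixed with compound and a substrate solution of 2 mM ATP plus 26 μM fluorogenic AQT0101 (ALK, ROS1) or AQT0104 (TRKA) in HEPES pH 7.5/MgCl2. Fluorescence was followed for 120 min at 30° C; Ki^app was obtained by Morrison fit of initial rates.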

[2] = molecular target: T2, Ba/F3 cells CD74-ROS1 wild-type (wt) (Homo sapiens, UniProt P08922); test: Ba/F3 cell proliferation assay, CD74-ROS1 wild-type; format: cell-based; settings: 72 hours, CellTiter-Glo
T2 construct: fusion of the C-terminus of ROS1 with the N-terminus of various partner proteins; host or cells: Ba/F3 (RIKEN), retroviral pMSCV-puro; the other entry of the earlier key: CD74 (P04233, HLA class II histocompatibility antigen gamma chain)
T2 sequence (P08922 1883-2347 limits assumed): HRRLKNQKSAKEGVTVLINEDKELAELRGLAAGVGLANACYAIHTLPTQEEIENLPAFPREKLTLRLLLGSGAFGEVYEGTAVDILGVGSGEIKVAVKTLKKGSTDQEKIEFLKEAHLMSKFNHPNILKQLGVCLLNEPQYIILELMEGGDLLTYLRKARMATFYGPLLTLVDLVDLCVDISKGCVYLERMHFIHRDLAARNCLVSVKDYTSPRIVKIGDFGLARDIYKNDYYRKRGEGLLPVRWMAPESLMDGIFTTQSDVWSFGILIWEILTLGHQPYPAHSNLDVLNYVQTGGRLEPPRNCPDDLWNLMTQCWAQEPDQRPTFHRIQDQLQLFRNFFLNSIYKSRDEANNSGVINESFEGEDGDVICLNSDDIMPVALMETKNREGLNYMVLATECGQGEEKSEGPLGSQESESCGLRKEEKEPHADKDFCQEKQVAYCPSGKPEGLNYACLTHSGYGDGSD
In short: (§2)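 First, retrovirally infected Ba/F3 cells were made IL-3-independent and selected with puromycin (0.8 μg/mL). Next, cells were plated and rested one day. Then compounds in 3-fold dilutions were added for 72 hours before CellTiter-Glo readout.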

ROS1-G2032R = molecular target: T3, ROS1-G2032R (Homo sapiens, UniProt P08922, G2032R); test: Biochemical kinase assay, ROS1-G2032R kinase domain; settings: apparent inhibitory constant, Morrison equation; ATP 2 mM in substrate solution; read-out: ROS1-G2032R Ki^app
T3 construct: purchased SignalChem R14-12BG
T3 sequence (P08922 1945-2222 G2032R limits assumed): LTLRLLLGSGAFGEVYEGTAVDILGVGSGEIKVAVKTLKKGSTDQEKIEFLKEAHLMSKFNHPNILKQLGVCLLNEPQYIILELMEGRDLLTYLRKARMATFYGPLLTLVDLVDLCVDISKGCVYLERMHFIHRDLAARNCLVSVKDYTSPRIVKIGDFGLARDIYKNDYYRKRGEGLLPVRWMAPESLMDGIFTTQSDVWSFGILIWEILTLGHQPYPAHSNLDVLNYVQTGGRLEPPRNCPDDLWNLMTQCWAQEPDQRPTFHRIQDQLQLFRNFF
In short: (§3)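 Compounds, as 100-fold DMSO stocks, were dispensed first, then substrate mix was added (ATP 2 mM, AQT0101 26 μM, in 50 mM HEPES pH 7.5/10 mM MgCl2). Reactions ran at 30 °C with fluorescence logged every 2 min over 120 min. Apparent inhibition constants came from fitting rates to Morrison's tight-binding equation.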

ALK L1196M/G1202R = molecular target: T4, ALK L1196M/G1202R (Homo sapiens, UniProt Q9UM73, G1202R/L1196M); test: Biochemical kinase assay, ALK L1196M/G1202R kinase domain; settings: apparent inhibitory constant, Morrison equation; ATP 2 mM in substrate solution; read-out: ALK-L1196M-G1202R Ki^app
T4 construct: purchased SignalChem A19-12NG
T4 sequence (Q9UM73 1116-1392 L1196M/G1202R limits assumed): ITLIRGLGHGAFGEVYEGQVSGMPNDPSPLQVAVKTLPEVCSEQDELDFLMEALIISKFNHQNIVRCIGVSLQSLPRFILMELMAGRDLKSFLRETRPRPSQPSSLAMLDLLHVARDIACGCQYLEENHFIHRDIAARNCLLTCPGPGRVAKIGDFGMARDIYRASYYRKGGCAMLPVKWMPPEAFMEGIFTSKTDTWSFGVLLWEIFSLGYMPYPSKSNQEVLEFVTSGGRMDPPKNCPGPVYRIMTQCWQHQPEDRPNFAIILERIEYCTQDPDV
In short: as §1

ALK-wt = molecular target: T5, ALK-wt (Homo sapiens, UniProt Q9UM73); test: Biochemical kinase assay, ALK-wt kinase domain; settings: apparent inhibitory constant, Morrison equation; ATP 2 mM in substrate solution; read-out: ALK-wt Ki^app
T5 construct: purchased Carna 08-518
T5 sequence (Q9UM73 1116-1392 limits assumed): as the sequence (Q9UM73 1116-1392 L1196M/G1202R limits assumed) above, with M81L, R87G counted along it
In short: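 Apparent Ki values come from fitting initial reaction rates against inhibitor concentration to the Morrison equation. Rates were taken from the linear phase of fluorogenic substrate phosphorylation (AQT0101 for ALK and ROS1, AQT0104 for TRKA; 26 μM in substrate solution with 2 mM ATP), monitored at 485 nm over 120 min at 30° C.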

[3] = molecular target: T6, Ba/F3 cells EML4-ALK wt (variant 1) (Homo sapiens, UniProt Q9UM73); test: Ba/F3 cell proliferation assay, EML4-ALK wt (variant 1); format: cell-based; settings: 72 hours, CellTiter-Glo
T6 construct: echinoderm microtubule-associated protein-like 4 (EML4) gene and the ALK tyrosine kinase domain; host or cells: Ba/F3 (RIKEN), retroviral pMSCV-puro; the other entry of the earlier key: EML4 (Q9HC35, Echinoderm microtubule-associated protein-like 4)
T6 sequence (Q9UM73 with tags, fused parts or gaps): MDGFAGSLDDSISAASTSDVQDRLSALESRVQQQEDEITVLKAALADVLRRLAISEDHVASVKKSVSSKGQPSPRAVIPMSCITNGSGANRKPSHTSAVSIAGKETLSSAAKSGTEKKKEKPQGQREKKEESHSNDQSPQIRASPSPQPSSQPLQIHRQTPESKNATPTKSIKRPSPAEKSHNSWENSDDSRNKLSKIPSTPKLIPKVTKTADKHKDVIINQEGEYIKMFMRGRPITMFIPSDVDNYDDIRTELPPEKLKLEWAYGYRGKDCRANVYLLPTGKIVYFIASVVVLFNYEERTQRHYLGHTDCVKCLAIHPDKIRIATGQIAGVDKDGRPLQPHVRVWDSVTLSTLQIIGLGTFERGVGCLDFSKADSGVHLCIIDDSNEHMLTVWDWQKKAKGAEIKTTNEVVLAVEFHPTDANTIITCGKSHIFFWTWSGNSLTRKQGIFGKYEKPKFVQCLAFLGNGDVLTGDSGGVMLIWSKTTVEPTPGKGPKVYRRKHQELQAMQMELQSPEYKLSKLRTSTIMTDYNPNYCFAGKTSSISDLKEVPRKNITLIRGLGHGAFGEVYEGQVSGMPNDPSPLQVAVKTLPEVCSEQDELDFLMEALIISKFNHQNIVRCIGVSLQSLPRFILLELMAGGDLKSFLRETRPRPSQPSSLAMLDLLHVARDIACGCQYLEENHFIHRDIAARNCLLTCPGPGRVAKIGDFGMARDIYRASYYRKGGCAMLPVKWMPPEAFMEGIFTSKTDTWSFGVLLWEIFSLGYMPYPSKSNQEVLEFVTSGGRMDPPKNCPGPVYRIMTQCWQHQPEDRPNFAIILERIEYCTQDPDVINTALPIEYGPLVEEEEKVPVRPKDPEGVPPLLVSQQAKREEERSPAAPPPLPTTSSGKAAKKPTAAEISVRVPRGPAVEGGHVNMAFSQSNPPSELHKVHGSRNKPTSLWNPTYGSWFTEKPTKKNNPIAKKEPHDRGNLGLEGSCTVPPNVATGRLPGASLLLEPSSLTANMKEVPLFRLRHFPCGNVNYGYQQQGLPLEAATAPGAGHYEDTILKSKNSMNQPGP
In short: (§4)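 IL-3-independent Ba/F3 lines stably expressing the fusion kinase (retroviral, puromycin-selected), 1,000 cells/well, treated with 3-fold compound dilutions for 72 h. Viability by CellTiter-Glo luminescence; IC50 from four-parameter logistic fit of percent inhibition.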

ROS1-wt = molecular target: T7, ROS1-wt (Homo sapiens, UniProt P08922); test: Biochemical kinase assay, ROS1-wt kinase domain; settings: apparent inhibitory constant, Morrison equation; ATP 2 mM in substrate solution; read-out: ROS1-wt Ki^app
T7 construct: purchased Carna 08-163
T7 sequence (P08922 1945-2222 limits assumed): as the sequence (P08922 1945-2222 G2032R limits assumed) above, with R88G counted along it
In short: as §3

[4] = molecular target: T8, Ba/F3 cells CD74-ROS1 G2032R (Homo sapiens, UniProt P08922, G2032R); test: Ba/F3 cell proliferation assay, CD74-ROS1 G2032R; format: cell-based; settings: 72 hours, CellTiter-Glo
T8 construct: fusion of the C-terminus of ROS1 with the N-terminus of various partner proteins; host or cells: Ba/F3 (RIKEN), retroviral pMSCV-puro; the other entry of the earlier key: CD74 (P04233, HLA class II histocompatibility antigen gamma chain)
T8 sequence (P08922 1883-2347 G2032R limits assumed): as the sequence (P08922 1883-2347 limits assumed) above, with G150R counted along it
In short: as §2

Ba/F3 cells TPM3-TRKA = molecular target: T9, Ba/F3 cells TPM3-TRKA (Homo sapiens, UniProt P04629); test: Ba/F3 cell proliferation assay, TPM3-TRKA; format: cell-based; settings: 72 hours, CellTiter-Glo, read-out: TPM3-NTRK1-wt IC50
T9 construct: host or cells: Ba/F3 (RIKEN), retroviral pMSCV-puro; the other entry of the earlier key: TPM3 (P06753, Tropomyosin alpha-3 chain)
T9 sequence (P04629 510-796 limits assumed): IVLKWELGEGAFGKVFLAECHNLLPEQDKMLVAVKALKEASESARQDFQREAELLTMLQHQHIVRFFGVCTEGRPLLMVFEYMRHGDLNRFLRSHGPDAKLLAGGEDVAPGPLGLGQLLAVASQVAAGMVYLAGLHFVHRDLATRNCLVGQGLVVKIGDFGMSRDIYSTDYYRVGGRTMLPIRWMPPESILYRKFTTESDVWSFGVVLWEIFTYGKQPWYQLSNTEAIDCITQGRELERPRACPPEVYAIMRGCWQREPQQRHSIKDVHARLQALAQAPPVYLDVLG
In short: as §4

[5] = molecular target: T10, Ba/F3 cells EML4-ALK L1196M/G1202R (variant 1) (Homo sapiens, UniProt Q9UM73, G1202R/L1196M); test: Ba/F3 cell proliferation assay, EML4-ALK L1196M/G1202R (variant 1); format: cell-based; settings: 72 hours, CellTiter-Glo
T10 construct: echinoderm microtubule-associated protein-like 4 (EML4) gene and the ALK tyrosine kinase domain; host or cells: Ba/F3 (RIKEN), retroviral pMSCV-puro; the other entry of the earlier key: EML4 (Q9HC35, Echinoderm microtubule-associated protein-like 4)
T10 sequence (Q9UM73 with tags, fused parts or gaps L1196M/G1202R): as the sequence (Q9UM73 with tags, fused parts or gaps) above, with L635M, G641R counted along it
In short: as §4

| Ki (TRKA-wt) | IC50 [2] | Ki (ROS1-G2032R) | Ki (ALK L1196M/G1202R) | Ki (ALK-wt) | IC50 [3] | Ki (ROS1-wt) | IC50 [4] | IC50 (Ba/F3 cells TPM3-TRKA) | IC50 [5] | SMILES | TPM3-NTRK1-wt/CD74-ROS1-G2032R selectivity ratio [1] | TPM3-NTRK1-wt/CD74-ROS1-wt selectivity ratio [1] | TPM3-NTRK1-wt/EML4-ALK-L1196M-G1202R selectivity ratio [1] | TPM3-NTRK1-wt/EML4-ALK-wt selectivity ratio [1] |
| --- | --- | --- | --- | --- | --- | --- | --- | --- | --- | --- | --- | --- | --- | --- |
| > 500 nM | 0.1 to 50 nM | < 50 nM | < 50 nM | < 50 nM | 0.1 to 50 nM | < 50 nM | 0.1 to 50 nM | > 500 nM | 50 to 500 nM | C[C@H]1Oc2cc(cnc2N)-c2c(C3CCC3)noc2Cn2ncnc2-c2ccc(F)cc21 [Example 52, (19R)-3-cyclobutyl-16-fluoro-19-methyl-5,20-dioxa-4,8,9,11,23-pentaazapentacyclo[19.3.1.0^2,^6.0^8,^12.0^13,^18]pentacosa-1(24),2(6),3,9,11,13,15,17,21(25),22-decaen-22-amine] | A (bin A for very high selectivity, ratio >30-fold) | A (bin A for very high selectivity, ratio >30-fold) | C (bin C for moderate selectivity, ratio ≥1) | A (bin A for very high selectivity, ratio >30-fold) |
| > 500 nM | 0.1 to 50 nM | < 50 nM | < 50 nM | < 50 nM | 0.1 to 50 nM | < 50 nM | 0.1 to 50 nM | > 500 nM | 50 to 500 nM | CCn1nnc2c1-c1cnc(N)c(c1)O[C@H](C)c1cc(F)ccc1-c1scnc1C2 [Example 53, (19R)-3-ethyl-16-fluoro-19-methyl-20-oxa-11-thia-3,4,5,9,23-pentaazapentacyclo[19.3.1.0^2,^6.0^8,^12.0^13,^18]pentacosa-1(24),2(6).4,8(12),9,13,15,17,21(25),22-decaen-22-amine] | A (bin A for very high selectivity, ratio >30-fold) | A (bin A for very high selectivity, ratio >30-fold) | C (bin C for moderate selectivity, ratio ≥1) | B (bin B for high selectivity, ratio >10-fold) |
| 50 to 500 nM | 0.1 to 50 nM | < 50 nM | 50 to 500 nM | < 50 nM | 0.1 to 50 nM | < 50 nM | 0.1 to 50 nM | 50 to 500 nM | 50 to 500 nM | CCn1nnc2c1-c1cnc(N)c(c1)O[C@H](C)c1cc(F)ccc1-c1cc(Cl)nn1C2 [Example 54, (19R)-10-chloro-3-ethyl-16-fluoro-19-methyl-20-oxa-3,4,5,8,9,23-hexaazapentacyclo[19.3.1.0^2,^6.0^8,^12.0^13,^18]pentacosa-1(24),2(6),4,9,11,13,15,17,21(25),22-decaen-22-amine] | A (bin A for very high selectivity, ratio >30-fold) | A (bin A for very high selectivity, ratio >30-fold) | D (bin D for low selectivity, ratio <1) | C (bin C for moderate selectivity, ratio ≥1) |
| > 500 nM | 0.1 to 50 nM | < 50 nM | 50 to 500 nM | < 50 nM | 0.1 to 50 nM | < 50 nM | 0.1 to 50 nM | > 500 nM | 50 to 500 nM | C[C@H]1Oc2cc(cnc2N)-c2c(cnn2CC(F)F)Cn2nc(Cl)cc2-c2ccc(F)cc21 [Example 55, (19R)-10-chloro-3-(2,2difluoroethyl)-16-fluoro-19-methyl-20-oxa-3,4,8,9,23-pentaazapentacyclo[19.3.1.0^2,^6.0^8,^12.0^13,^18]pentacosa-1(24),2(6),4,9,11,13,15,17,21(25),22-decaen-22-amine] | A (bin A for very high selectivity, ratio >30-fold) | A (bin A for very high selectivity, ratio >30-fold) | C (bin C for moderate selectivity, ratio ≥1) | A (bin A for very high selectivity, ratio >30-fold) |
| 50 to 500 nM | 0.1 to 50 nM | < 50 nM | < 50 nM | < 50 nM | 0.1 to 50 nM | < 50 nM | 0.1 to 50 nM | 50 to 500 nM | 50 to 500 nM | CCn1nc(C)c2c1-c1cnc(N)c(c1)O[C@H](C)c1cc(F)ccc1-c1ncnn1C2 [Example 56, (19R)-3-ethyl-16-fluoro-5,19-dimethyl-20-oxa-3,4,8,9,11,23-hexaazapentacyclo[19.3.1.0^2,^6.0^8,^12.0^13,^18]pentacosa-1(24),2(6),4,9,11,13,15,17,21(25),22-decaen-22-amine] | A (bin A for very high selectivity, ratio >30-fold) | A (bin A for very high selectivity, ratio >30-fold) | C (bin C for moderate selectivity, ratio ≥1) | B (bin B for high selectivity, ratio >10-fold) |
| 50 to 500 nM | 0.1 to 50 nM | 50 to 500 nM | 50 to 500 nM | < 50 nM | 50 to 500 nM | < 50 nM | 50 to 500 nM | 50 to 500 nM | > 500 nM | CCc1noc2c1-c1cnc(N)c(c1)O[C@H](C)c1cc(F)ccc1-c1nnnn1C2 [Example 58, (19R)-3-ethyl-16-fluoro-19-methyl-5,20-dioxa-4,8,9,10,11,23-hexaazapentacyclo[19.3.1.0^2,^6.0^8,^12.0^13,^18]pentacosa-1(24),2(6),3,9,11,13,15,17,21(25),22-decaen-22-amine] | C (bin C for moderate selectivity, ratio ≥1) | A (bin A for very high selectivity, ratio >30-fold) | D (bin D for low selectivity, ratio <1) | C (bin C for moderate selectivity, ratio ≥1) |
